The record followed here is BindingDB's records for doi:10.1021/jm00039a015 (Abbott Laboratories, 1994).

Counter-ions that a name gives are not always drawn.

The target of this experiment is Platelet-activating factor receptor (Oryctolagus cuniculus). Briefly: Antagonist activity against platelet activating factor (PAF) receptor in rabbit platelet membranes using [3H]C18-PAF as radioligand.

For orientation: Ki means the equilibrium dissociation constant of an inhibitor or competing ligand from its target. Take `COc1ccc2c(C(=O)[C@@H]3CSC(c4cccnc4)N3)cn(C(=O)OC(C)(C)C)c2c1` (stereo partly drawn) [6-Methoxy-3-((R)-2-pyridin-3-yl-thiazolidine-4-carbonyl)-indole-1-carboxylic acid tert-butyl ester; compound with oxalic acid]: the affinity, expressed as Ki, was 8.2 nM. For `Cc1ccc2c(C(=O)[C@@H]3CSC(c4cccnc4)N3)cn(C(=O)OC(C)(C)C)c2c1` (stereo partly drawn) [6-Methyl-3-((R)-2-pyridin-3-yl-thiazolidine-4-carbonyl)-indole-1-carboxylic acid tert-butyl ester] the value was 2.6 nM. Consider `CN(C)C(=O)n1cc(C(=O)[C@@H]2CSC(c3cccnc3)N2)c2ccc(-c3ccccc3)cc21` (stereo partly drawn) [6-Phenyl-3-((R)-2-pyridin-3-yl-thiazolidine-4-carbonyl)-indole-1-carboxylic acid dimethylamide], for which the Ki came out at 3.6 nM. For `CN(C)C(=O)n1cc(C(=O)[C@@H]2CSC(c3cccnc3)N2)c2ccc(C#Cc3ccccc3)cc21` (stereo partly drawn) [6-Phenylethynyl-3-((R)-2-pyridin-3-yl-thiazolidine-4-carbonyl)-indole-1-carboxylic acid dimethylamide] the value was 1.3 nM; for `CN(C)C(=O)n1cc(C(=O)[C@@H]2CSC(c3cccnc3)N2)c2ccc(-c3cccnc3)cc21` (stereo partly drawn) [6-Pyridin-3-yl-3-((R)-2-pyridin-3-yl-thiazolidine-4-carbonyl)-indole-1-carboxylic acid dimethylamide], 40 nM; for `CN(C)C(=O)n1cc(C(=O)[C@@H]2CSC(c3cccnc3)N2)c2cccc(OCc3ccccc3)c21` (stereo partly drawn) [7-Benzyloxy-3-((R)-2-pyridin-3-yl-thiazolidine-4-carbonyl)-indole-1-carboxylic acid dimethylamide], 14 nM.

In turn, `O=C(c1cn(Cc2ccccc2)c2ccccc12)[C@@H]1CSC(c2cccnc2)N1` (stereo partly drawn) [(1-Benzyl-1H-indol-3-yl)-((R)-2-pyridin-3-yl-thiazolidin-4-yl)-methanone] came in with a Ki of 49 nM. For `CCS(=O)(=O)n1cc(C(=O)[C@@H]2CSC(c3cccnc3)N2)c2ccccc21` (stereo partly drawn) [(1-Ethanesulfonyl-1H-indol-3-yl)-((R)-2-pyridin-3-yl-thiazolidin-4-yl)-methanone] the value was 18 nM; for `CCn1cc(C(=O)[C@@H]2CSC(c3cccnc3)N2)c2ccccc21` (stereo partly drawn) [(1-Ethyl-1H-indol-3-yl)-((R)-2-pyridin-3-yl-thiazolidin-4-yl)-methanone], 5.4 nM; for `O=C(c1c[nH]c2ccccc12)[C@@H]1CSC(c2cccnc2)N1` (stereo partly drawn) [(1H-Indol-3-yl)-((R)-2-pyridin-3-yl-thiazolidin-4-yl)-methanone; compound with oxalic acid], 3.4 nM. Take `Cc1ccc2[nH]c(C)c(C(=O)[C@@H]3CSC(c4cccnc4)N3)c2c1` (stereo partly drawn) [(2,5-Dimethyl-1H-indol-3-yl)-((R)-2-pyridin-3-yl-thiazolidin-4-yl)-methanone]: affinity was put at a Ki of 33 nM. Compound `Cc1[nH]c2ccccc2c1C(=O)[C@@H]1CSC(c2cccnc2)N1` (stereo partly drawn) [(2-Methyl-1H-indol-3-yl)-((R)-2-pyridin-3-yl-thiazolidin-4-yl)-methanone] returned a Ki of 23 nM. The same measure for `O=C(c1c[nH]c2cccc(OCc3ccccc3)c12)[C@@H]1CSC(c2cccnc2)N1` (stereo partly drawn) [(4-Benzyloxy-1H-indol-3-yl)-((R)-2-pyridin-3-yl-thiazolidin-4-yl)-methanone]: 13 nM.

Consider `O=C(C1CSC(c2cccnc2)N1)n1ccc2c(Cl)cccc21` (configuration not stated) [(4-Chloro-indol-1-yl)-(2-pyridin-3-yl-thiazolidin-4-yl)-methanone], for which the Ki turned out to be 33 nM. For `O=C(c1cn(C(=O)c2ccc(Cl)cc2)c2ccccc12)[C@@H]1CSC(c2cccnc2)N1` (stereo partly drawn) [(4-Chloro-phenyl)-[3-((R)-2-pyridin-3-yl-thiazolidine-4-carbonyl)-indol-1-yl]-methanone] the value was 3.4 nM. For `COc1cc2[nH]cc(C(=O)[C@@H]3CSC(c4cccnc4)N3)c2cc1OC` (stereo partly drawn) [(5,6-Dimethoxy-1H-indol-3-yl)-((R)-2-pyridin-3-yl-thiazolidin-4-yl)-methanone] the value was 87 nM. The compound `O=C(C1CSC(c2cccnc2)N1)n1ccc2cc(OCc3ccccc3)ccc21` (configuration not stated) [(5-Benzyloxy-indol-1-yl)-(2-pyridin-3-yl-thiazolidin-4-yl)-methanone] yielded a Ki of 15 nM. For `O=C(c1ccccc1)c1ccc2ccn(C(=O)[C@@H]3CSC(c4cccnc4)N3)c2c1` (stereo partly drawn) [(6-Benzoyl-indol-1-yl)-((R)-2-pyridin-3-yl-thiazolidin-4-yl)-methanone] the value was 95 nM. For `CCS(=O)(=O)n1cc(C(=O)[C@@H]2CSC(c3cccnc3)N2)c2ccc(OCc3ccccc3)cc21` (stereo partly drawn) [(6-Benzyloxy-1-ethanesulfonyl-1H-indol-3-yl)-((R)-2-pyridin-3-yl-thiazolidin-4-yl)-methanone] the value was 8.1 nM. The same measure for `O=C(c1c[nH]c2cc(OCc3ccccc3)ccc12)[C@@H]1CSC(c2cccnc2)N1` (stereo partly drawn) [(6-Benzyloxy-1H-indol-3-yl)-((R)-2-pyridin-3-yl-thiazolidin-4-yl)-methanone]: 1.6 nM.

The compound `Cc1[nH]c2cc(OCc3ccccc3)ccc2c1C(=O)[C@@H]1CSC(c2cccnc2)N1` (stereo partly drawn) [(6-Benzyloxy-2-methyl-1H-indol-3-yl)-((R)-2-pyridin-3-yl-thiazolidin-4-yl)-methanone] came in with a Ki of 16 nM. This Ki lies about 10-fold higher than the previous one. For `O=C([C@@H]1CSC(c2cccnc2)N1)n1ccc2ccc(OCc3ccccc3)cc21` (stereo partly drawn) [(6-Benzyloxy-indol-1-yl)-((R)-2-pyridin-3-yl-thiazolidin-4-yl)-methanone] the value was 52 nM; for `O=C(c1c[nH]c2cc(F)ccc12)[C@@H]1CSC(c2cccnc2)N1` (stereo partly drawn) [(6-Fluoro-1H-indol-3-yl)-((R)-2-pyridin-3-yl-thiazolidin-4-yl)-methanone], 5.6 nM.

For the compound `COc1ccc2c(C(=O)[C@@H]3CSC(c4cccnc4)N3)c[nH]c2c1` (stereo partly drawn) [(6-Methoxy-1H-indol-3-yl)-((R)-2-pyridin-3-yl-thiazolidin-4-yl)-methanone], affinity was put at a Ki of 9.5 nM.

Consider `Cc1ccc2c(C(=O)[C@@H]3CSC(c4cccnc4)N3)c[nH]c2c1` (stereo partly drawn) [(6-Methyl-1H-indol-3-yl)-((R)-2-pyridin-3-yl-thiazolidin-4-yl)-methanone], for which the affinity corresponds to a Ki of 3.4 nM. For `O=C(c1c[nH]c2cc(-c3ccccc3)ccc12)[C@@H]1CSC(c2cccnc2)N1` (stereo partly drawn) [(6-Phenyl-1H-indol-3-yl)-((R)-2-pyridin-3-yl-thiazolidin-4-yl)-methanone] the value was 14 nM; for `O=C(c1c[nH]c2c(OCc3ccccc3)cccc12)[C@@H]1CSC(c2cccnc2)N1` (stereo partly drawn) [(7-Benzyloxy-1H-indol-3-yl)-((R)-2-pyridin-3-yl-thiazolidin-4-yl)-methanone; TFA], 1.1 nM; for `O=C([C@@H]1CSC(c2cccnc2)N1)n1ccc2cccc(OCc3ccccc3)c21` (stereo partly drawn) [(7-Benzyloxy-indol-1-yl)-((R)-2-pyridin-3-yl-thiazolidin-4-yl)-methanone; compound with oxalic acid], 385 nM. The same measure for `Cc1cccc2c(C(=O)[C@@H]3CSC(c4cccnc4)N3)c[nH]c12` (stereo partly drawn) [(7-Methyl-1H-indol-3-yl)-((R)-2-pyridin-3-yl-thiazolidin-4-yl)-methanone]: 6.5 nM.

In turn, `O=C(c1cn(CC(F)(F)F)c2ccccc12)[C@@H]1CSC(c2cccnc2)N1` (stereo partly drawn) [((R)-2-Pyridin-3-yl-thiazolidin-4-yl)-[1-(2,2,2-trifluoro-ethyl)-1H-indol-3-yl]-methanone] displayed a Ki of 21 nM.

In turn, `O=C(c1ccccc1)c1cccc(NC(=O)[C@@H]2CSC(c3cccnc3)N2)c1` (stereo partly drawn) [(R)-2-Pyridin-3-yl-thiazolidine-4-carboxylic acid (3-benzoyl-phenyl)-amide] showed a Ki of 7.7 nM. This Ki is about 2.7-fold lower than that of the compound before. For `O=C(Nc1cccc(Cl)c1)[C@@H]1CSC(c2cccnc2)N1` (stereo partly drawn) [(R)-2-Pyridin-3-yl-thiazolidine-4-carboxylic acid (3-chloro-phenyl)-amide] the value was 208 nM. The same measure for `COc1cc(C(=O)c2cccc(NC(=O)[C@@H]3CSC(c4cccnc4)N3)c2)cc(OC)c1OC` (stereo partly drawn) [(R)-2-Pyridin-3-yl-thiazolidine-4-carboxylic acid [3-(3,4,5-trimethoxy-benzoyl)-phenyl]-amide]: 1.6 nM; for `O=CN1C(c2cccnc2)SC[C@H]1C(=O)c1c[nH]c2ccccc12` (stereo partly drawn) [(R)-4-(1H-Indole-3-carbonyl)-2-pyridin-3-yl-thiazolidine-3-carbaldehyde]: 220 nM. Take `CC(C)(C)OC(=O)N1C(c2cccnc2)SC[C@H]1C(=O)c1c[nH]c2ccccc12` (stereo partly drawn) [(R)-4-(1H-Indole-3-carbonyl)-2-pyridin-3-yl-thiazolidine-3-carboxylic acid tert-butyl ester]: the affinity corresponds to a Ki of 9750 nM.

In the case of `O=C(c1cn(C(=O)N2CCOCC2)c2ccccc12)[C@@H]1CSC(c2cccnc2)N1` (stereo partly drawn) [Morpholin-4-yl-[3-((R)-2-pyridin-3-yl-thiazolidine-4-carbonyl)-indol-1-yl]-methanone], the inhibition constant (Ki) was determined as 1.5 nM. The same measure for `CNC(=O)Cn1cc(C(=O)[C@@H]2CSC(c3cccnc3)N2)c2ccccc21` (stereo partly drawn) [N-Methyl-2-[3-((R)-2-pyridin-3-yl-thiazolidine-4-carbonyl)-indol-1-yl]-acetamide]: 2.4 nM; for `O=C(Nc1cccc(Cl)c1)c1ccn2c1CSC2c1cccnc1` (configuration not stated) [RP-52770]: 274 nM; for `Cc1ccc2c(c1)c(C(=O)[C@@H]1CSC(c3cccnc3)N1)c(C)n2C(=O)N1CCOCC1` (stereo partly drawn) [[2,5-Dimethyl-3-((R)-2-pyridin-3-yl-thiazolidine-4-carbonyl)-indol-1-yl]-morpholin-4-yl-methanone]: 36 nM. For `Cc1c(C(=O)[C@@H]2CSC(c3cccnc3)N2)c2ccccc2n1C(=O)N1CCOCC1` (stereo partly drawn) [[2-Methyl-3-((R)-2-pyridin-3-yl-thiazolidine-4-carbonyl)-indol-1-yl]-morpholin-4-yl-methanone] the value was 88 nM; for `O=C(O)Cn1cc(C(=O)[C@@H]2CSC(c3cccnc3)N2)c2ccccc21` (some centres not stated) [[3-(2-Pyridin-3-yl-thiazolidine-4-carbonyl)-indol-1-yl]-acetic acid], 30 nM; for `CCOC(=O)Cn1cc(C(=O)[C@@H]2CSC(c3cccnc3)N2)c2ccccc21` (stereo partly drawn) [[3-((R)-2-Pyridin-3-yl-thiazolidine-4-carbonyl)-indol-1-yl]-acetic acid ethyl ester], 1.2 nM.
